Results as given in article PMC5843811, “^44Sc for labeling of DOTA- and NODAGA-functionalized peptides: preclinical in vitro and in vivo investigations” (EJNMMI Radiopharmacy and Chemistry, 2016).
Like-named read-outs stand apart in the source and are kept apart here.

Experiments:
[1] = Biodistribution in U87MG tumor-bearing mice; type: in vivo; conditions: female, CD-1 nude (athymic nude), mouse, iv, total radioactivity, i.v. ~5 MBq (~1 nmol), mean ± SD; for tissue to tissue ratio at 0.5 h / tissue uptake at 0.5 h: 30 min p.i.; for tissue to tissue ratio at 5 h / tissue uptake at 5 h: 5 h p.i.
Experimental: Female athymic nude mice (CD-1 nude), age 5–6 weeks, were obtained from Charles River Laboratories, Sulzfeld, Germany. U87MG cells and AR42J-cells were suspended in PBS (5 × 10^6 cells in 100 μL) and subcutaneously inoculated on each shoulder. Two to three weeks later, when the tumor reached a size of about 300–500 mm^3, the mice were used for the in vivo studies.
Biodistribution studies were performed with U87MG tumor and AR42J tumor-bearing mice 2 weeks after tumor cell inoculation. ^44Sc- and ^68Ga-labeled peptides (~5 MBq, ~1 nmol per mouse) were intravenously injected in a volume of 100–200 μL. Mice were sacrificed at 30 min, 2 h and 5 h after injection (p.i.) of the ^44Sc-labeled peptides. Mice which were injected with ^68Ga-labeled peptides were sacrificed at 30 min and 2 h p.i. Selected tissues and organs were collected, weighed, and counted for radioactivity using a γ-counter (Wallac Wizard 1480, Perkin Elmer). The results were listed as a percentage of the injected activity per gram of tissue mass (% IA/g), using counts of a defined volume of the original injection solution counted at the same time. The data were analyzed for significance using a two-way ANOVA test (Graph Pad Prism 6 software, version 6.05). A p-value of < 0.05 was considered statistically significant.

[2] = tested on: U87MG tumor-bearing mice; experiment: PET/CT imaging of U87MG tumor-bearing mice; type: in vivo; conditions: 3 h after i.v. injection of ~10 MBq (~1 nmol), one or two mice
Experimental: The energy window was set to 150–650 keV. […] All static PET scans lasted for 20 min.

[3] = U87MG tumor / blood, n=3, read-out: Tumor-to-blood ratio
[4] = U87MG tumor / kidneys, n=3, read-out: Tumor-to-kidney ratio
[5] = U87MG tumor / liver, n=3, read-out: Tumor-to-liver ratio
[6] = U87MG tumor, n=3, read-out: Biodistribution, U87MG Tumor
[7] = blood, 5 MBq per mouse, n=3, read-out: Biodistribution, Blood
[8] = bone, 5 MBq per mouse, n=3, read-out: Biodistribution, Bone
[9] = brain, 5 MBq per mouse, n=3, read-out: Biodistribution, Brain
[10] = heart, 5 MBq per mouse, n=3, read-out: Biodistribution, Heart
[11] = intestines, 5 MBq per mouse, n=3, read-out: Biodistribution, Intestines
[12] = kidneys, n=3, read-out: Biodistribution, Kidneys
[13] = liver, n=3, read-out: Biodistribution, Liver
[14] = lung, 5 MBq per mouse, n=3, read-out: Biodistribution, Lung
[15] = muscle, 5 MBq per mouse, n=3, read-out: Biodistribution, Muscle
[16] = skin, 5 MBq per mouse, n=3, read-out: Biodistribution, Skin
[17] = spleen, 5 MBq per mouse, n=3, read-out: Biodistribution, Spleen
[18] = stomach, 5 MBq per mouse, n=3, read-out: Biodistribution, Stomach

tissue to tissue ratio at 0.5 h [1, 3]: 4.73 ± 1.24
tissue to tissue ratio at 5 h [1, 3]: 30.5 ± 9.93
tissue to tissue ratio at 0.5 h [1, 4]: 1.18 ± 0.28
tissue to tissue ratio at 2 h ([1]; U87MG tumor / kidneys, 2 h p.i., n=3, read-out: Tumor-to-kidney ratio): 2.68 ± 0.14
tissue to tissue ratio at 5 h [1, 4]: 2.58 ± 0.24
tissue to tissue ratio at 0.5 h [1, 5]: 3.02 ± 0.4
tissue to tissue ratio at 5 h [1, 5]: 2.82 ± 0.21
tissue uptake at 0.5 h [1, 6]: 4.5 ± 0.77 %ID/g
tissue uptake at 5 h [1, 6]: 3.01 ± 0.55 %ID/g
tissue uptake at 0.5 h [1, 7]: 0.98 ± 0.21 %ID/g
tissue uptake at 5 h [1, 7]: 0.11 ± 0.07 %ID/g
tissue uptake at 0.5 h [1, 8]: 1.53 ± 0.16 %ID/g
tissue uptake at 5 h [1, 8]: 0.76 ± 0.03 %ID/g
tissue uptake at 0.5 h [1, 9]: 0.1 ± 0.01 %ID/g
tissue uptake at 5 h [1, 9]: 0.06 ± 0.01 %ID/g
tissue uptake at 0.5 h [1, 10]: 0.89 ± 0.13 %ID/g
tissue uptake at 2 h ([1]; heart, 5 MBq per mouse, 2 h p.i., n=3, read-out: Biodistribution, Heart): 0.44 ± 0.04 %ID/g
tissue uptake at 5 h [1, 10]: 0.35 ± 0.13 %ID/g
tissue uptake at 0.5 h [1, 11]: 1.76 ± 0.22 %ID/g
tissue uptake at 2 h ([1]; intestines, 5 MBq per mouse, 2 h p.i., n=3, read-out: Biodistribution, Intestines): 0.91 ± 0.16 %ID/g
tissue uptake at 5 h [1, 11]: 0.75 ± 0.13 %ID/g
tissue uptake at 2 h ([1]; kidneys, 5 MBq per mouse, 2 h p.i., n=3, read-out: Biodistribution, Kidneys): 1.5 ± 0.3 %ID/g
tissue uptake at 0.5 h [1, 12]: 3.89 ± 0.68 %ID/g
tissue uptake at 5 h [1, 12]: < 2 %ID/g
tissue uptake at 0.5 h [1, 13]: 1.49 ± 0.06 %ID/g
tissue uptake at 2 h ([1]; liver, 2 h p.i., n=3, read-out: Biodistribution, Liver): 1.34 ± 0.27 %ID/g
tissue uptake at 5 h [1, 13]: ~1 %ID/g
tissue uptake at 0.5 h [1, 14]: 2.2 ± 0.68 %ID/g
tissue uptake at 5 h [1, 14]: 0.65 ± 0.16 %ID/g
tissue uptake at 0.5 h [1, 15]: 0.68 ± 0.03 %ID/g
tissue uptake at 5 h [1, 15]: 0.3 ± 0.06 %ID/g
tissue uptake at 2 h ([1]; pancreas, 5 MBq per mouse, 2 h p.i., n=3, read-out: Biodistribution, pancreas): 0.43 ± 0.04 %ID/g
tissue uptake at 5 h ([1]; pancreas, 5 MBq per mouse, n=3, read-out: Biodistribution, pancreas): 0.37 ± 0.07 %ID/g
tissue uptake at 0.5 h ([1]; pancreas, n=3, read-out: Biodistribution, pancreas): 0.73 ± 0.22 %ID/g
tissue uptake at 0.5 h [1, 16]: 1.97 ± 0.17 %ID/g
tissue uptake at 2 h ([1]; skin, 5 MBq per mouse, 2 h p.i., n=3, read-out: Biodistribution, Skin): 1.3 ± 0.13 %ID/g
tissue uptake at 5 h [1, 16]: 1.21 ± 0.34 %ID/g
tissue uptake at 0.5 h [1, 17]: 1.63 ± 0.21 %ID/g
tissue uptake at 2 h ([1]; spleen, 5 MBq per mouse, 2 h p.i., n=3, read-out: Biodistribution, Spleen): 1.58 ± 0.31 %ID/g
tissue uptake at 5 h [1, 17]: 0.95 ± 0.19 %ID/g
tissue uptake at 0.5 h [1, 18]: 1.69 ± 0.16 %ID/g
tissue uptake at 2 h ([1]; stomach, 5 MBq per mouse, 2 h p.i., n=3, read-out: Biodistribution, Stomach): 1.01 ± 0.32 %ID/g
tissue uptake at 5 h [1, 18]: 0.8 ± 0.03 %ID/g
SMILES: N=C(N)NCCC[C@@H]1NC(=O)[C@H](CCCCNC(=O)CCC(C(=O)O)N2CCN(CC(=O)O)CCN(CC(=O)O)CC2)NC(=O)[C@@H](Cc2ccc(O)cc2)NC(=O)[C@H](CC(=O)O)NC(=O)CNC1=O (some centres unmarked) [^44Sc-NODAGA-RGD, metal not drawn]
PET/CT distribution of radioactivity (in words) [2]: comparable to ^68Ga-NODAGA-RGD but showed somewhat more background activity in the abdominal tract
